Experimental data published in patent US7807707B2, “Hair and/or scalp care compositions incorporating amino-oxo-indole-ylidene compounds” (priority 2005, dated 2010).

How the values were obtained:
[1] = target: T1, Cannabinoid Receptor 1 (CB1R) (Homo sapiens, UniProt P21554); test: CB1R radioligand assay on membranes from HEK293 cells over-expressing human recombinant CB1; type: binding; conditions: human recombinant CB1, [3H]CP-55,490 radioligand, n=3
T1 construct: purchased Perkin-Elmer; host or cells: HEK293
T1 sequence (P21554 whole entry): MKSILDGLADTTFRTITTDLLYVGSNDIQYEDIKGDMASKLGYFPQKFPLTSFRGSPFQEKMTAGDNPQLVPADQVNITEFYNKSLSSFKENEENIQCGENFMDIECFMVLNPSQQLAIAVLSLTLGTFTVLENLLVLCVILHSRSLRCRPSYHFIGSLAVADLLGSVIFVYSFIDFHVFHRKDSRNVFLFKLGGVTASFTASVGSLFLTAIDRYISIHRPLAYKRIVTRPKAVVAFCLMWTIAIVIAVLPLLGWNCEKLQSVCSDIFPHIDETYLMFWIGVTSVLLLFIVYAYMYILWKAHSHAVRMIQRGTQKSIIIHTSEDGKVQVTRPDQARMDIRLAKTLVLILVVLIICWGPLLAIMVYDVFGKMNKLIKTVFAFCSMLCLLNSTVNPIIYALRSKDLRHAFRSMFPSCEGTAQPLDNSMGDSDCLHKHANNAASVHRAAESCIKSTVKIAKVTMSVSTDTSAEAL
Protocol: (§1) An amino-oxo-indole-ylidene compound of formula (I) was evaluated for its ability to activate Cannabinoid Receptor 1 (CB1R) and Cannabinoid Receptor 2 (CB2R). Its C log P value were also measured.
CB1R experiments were performed using membranes from HEK293 cells over-expressing human recombinant CB1, as described by the manufacturer (Perkin-Elmer) and using [3H]CP-55,490 as the radioligand.
(§2) Data of the active compound is expressed in Ki (mM) and are means±SEM of n=3 determinations.
(§3) The value stated is an EC50 value. This is defined as the molar concentration of an agonist, which produces 50% of the maximum possible response for that agonist. The values documented are in micromolar units.

[2] = target: T2, Cannabinoid Receptor 2 (CB2R) (Homo sapiens, UniProt P34972); test: CB2R radioligand assay on membranes from HEK293 cells over-expressing human recombinant CB2; type: binding
T2 construct: purchased Perkin-Elmer; host or cells: HEK293
T2 sequence (P34972 whole entry): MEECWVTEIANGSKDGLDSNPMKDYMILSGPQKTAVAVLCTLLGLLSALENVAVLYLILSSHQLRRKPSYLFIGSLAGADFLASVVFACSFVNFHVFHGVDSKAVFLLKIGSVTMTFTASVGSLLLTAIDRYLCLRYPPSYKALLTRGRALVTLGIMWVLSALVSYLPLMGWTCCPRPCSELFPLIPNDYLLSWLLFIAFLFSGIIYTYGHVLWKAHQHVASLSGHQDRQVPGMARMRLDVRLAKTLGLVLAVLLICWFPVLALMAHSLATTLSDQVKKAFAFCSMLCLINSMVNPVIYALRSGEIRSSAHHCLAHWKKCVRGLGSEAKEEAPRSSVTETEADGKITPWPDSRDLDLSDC
Protocol: as §1
CB2R experiments were performed using membranes from HEK293 cells over-expressing human recombinant CB2, as described by the manufacturer (Perkin-Elmer), and using [3H]CP-55,495 as the radioligand.
as §2, §3

`O=C(CNc1cccc2ccccc12)N/N=C1\C(=O)N(CCc2ccccc2)c2ccccc21` [Example 1, (naphthalen-1-ylamino)-acetic acid (2-oxo-1-phenethyl-1,2-dihydro-indol-3-ylidene)-hydrazide] was tested, and the EC50 [1] was greater than 25 µM and the EC50 [2] was 21.1 µM.
